According to US8173668B1 (Alcon Research, Ltd., priority 2007, dated 2012):
Read-outs that look alike come from different tables or passages of the source.

Key:
Format in all cases: in vivo
[1] = Ocular pharmacokinetic study in rabbit eyes, single topical ocular dose; details: single 300 μg topical ocular dose; for concentration at 0.5 hr: 0.5 hr post-dosing; for concentration at 1 hr: 1.0 hr post-dosing; for concentration at 3 hr: 3 hr post-dosing; for concentration at 6 hr: 6 hr post-dosing
Experimental: In order to better understand the time-course of action of FR-190997, a pharmacokinetic study was performed in rabbit eyes using a single 300 μg topical ocular dose of FR-190997. […] Due to the activation of multiple signaling pathways by BK (see above), and presumably FR-190997, and the convergence and amplification of the down-stream biochemical reactions in the target cells/tissues, it is quite possible that activation of only a few BK receptors by FR-190997 may result in quite profound IOP-lowering.

guinea pigs = test: IOP-lowering activity in guinea pigs
From the text: Some obvious drawbacks and reasons for the lack of consistent observations noted above are probably related to species differences in the effects of BK on IOP changes and on the fact that BK is a labile peptide that can easily and rapidly be inactivated by kininases and other proteases when it comes into contact with body fluids (Hall, Pharmacol. Ther., 56, 131-190, 1992). Additionally, topical ocular administration of peptides such as BK are confounded by the potential lack of or little bioavailability through the cornea to reach the anterior segment of the eye. […] This is probably related to the attainment of a relevant concentration in the aqueous humor and ciliary body when the compound was administered topical ocularly.

[2] = test system: conscious ocular hypertensive cynomolgus monkey eyes; test: IOP response in lasered (hypertensive) eyes of conscious cynomolgus monkeys, topical ocular
Experimental: Intraocular pressure (IOP) is determined with an Alcon Pneumatonometer (Alcon Laboratories, Inc., Fort Worth, Tex.) after light corneal anesthesia with 0.1% proparacaine. Right eyes are hypertensive as a result of laser trabeculoplasty. After a baseline IOP measurement, test compound is instilled in the right eyes only of 8-10 cynomolgus monkeys. Vehicle is instilled in the right eyes of 5-6 additional animals. Subsequent IOP measurements are taken at 1, 3, and 6 hours. IOP measurements are also taken on left eyes (normotensive and untreated) at each of these time points. The percent change in IOP from baseline is determined for each animal for every IOP measurement (Sharif et al. J. Ocular Pharmacol. Ther. 17: 305-317, 2001; May et al., J Pharmacol Exp Ther. 306: 301-309, 2003; Sharif et al. Invest. Ophthalmol. Vis. Res. 47: 4001-4010, 2006). Group mean and standard error of the mean (SEM) are calculated for each time point. […] In cases where the compound of invention has poor ocular bioavailability, the compound may need to be administered intracamerally or intravitreally in order to observe the IOP-lowering efficacy.
The IOP-lowering effect was slow to develop but significant IOP reduction was observed even 3 hours post-dosing with maximum ocular hypotension observed 16-48 hours post-dosing (Tables 6-8; FIGS. 3b-5).

[3] = test system: hypertensive eyes of cynomolgus monkeys; test: IOP in lasered (hypertensive) eyes of cynomolgus monkeys, single dose (FIG. 9); details: IOP at 8, 25 and 27.5 hours
Experimental: Hours 5 and 8 were conscious IOPs. Hours 25 and 27.5 were made under sedation. […] Error bars indicate standard deviations.
Intraocular pressure (IOP) was determined with an Alcon Pneumatonometer (Alcon Laboratories, Inc., Fort Worth, Tex.) after light corneal anesthesia with 0.1% proparacaine. Right eyes were hypertensive as a result of laser trabeculoplasty. After a baseline IOP measurement, FR-190997 was instilled in the right eyes only of 12 cynomolgus monkeys. Vehicle was instilled in the right eyes of 5-6 additional animals. Subsequent IOP measurements were taken at 8, 25, and 27.5 hours. IOP measurements are also taken on left eyes (normotensive and untreated) at each of these time points. The percent change in IOP from baseline was determined for each animal for every IOP measurement (Sharif et al. J. Ocular Pharmacol. Ther. 17: 305-317, 2001; May et al., J Pharmacol Exp Ther. 306: 301-309, 2003; Sharif et al. Invest. Ophthalmol. Vis. Res. 47: 4001-4010, 2006). Group mean and standard error of the mean (SEM) were calculated for each time point.

[4] = aqueous humor, read-out: Aqueous Humor Concentration
[5] = ciliary body, read-out: Ciliary Body Concentration

concentration at 0.5 hr [1, 4]: 0.9 ± 0.2 nM
concentration at 1 hr [1, 4]: 16 ± 4.7 nM
concentration at 1.5 hr ([1]; aqueous humor, 1.5 hr post-dosing): 3.1 ± 1.1 nM
concentration at 3 hr [1, 4]: 139 ± 114 nM
concentration at 6 hr [1, 4]: 16.6 ± 4.6 nM
concentration at 0.5 hr [1, 5]: 2.75 ± 1.7 nM
concentration at 1 hr [1, 5]: 5.52 ± 1.68 nM
concentration at 3 hr [1, 5]: 26.4 ± 7.9 nM
concentration at 6 hr [1, 5]: 37 ± 10.6 nM
peak aqueous humor level [1]: 139 nM
time of peak aqueous humor level post-dosing [1]: 3 h
Compound: CNC(=O)c1ccc(/C=C/C(=O)NCC(=O)N(C)c2ccc(Cl)c(COc3cccc4c(OCc5ccccn5)cc(C)nc34)c2Cl)cc1 [FR-190997]
ability to lower IOP (guinea pigs): unable to lower IOP
% Change in IOP ([2]; Study 1, 30 μg topical ocular, Dose 1/1 hr): −4.6 ± 4.4%
% Change in IOP ([2]; Study 1, 30 μg topical ocular, Dose 1/3 hr): −16.4 ± 5.3%
% Change in IOP ([2]; Study 1, 30 μg topical ocular, Dose 1/6 hr): −34.5 ± 7.5%
% Change in IOP ([2]; Study 1, 30 μg topical ocular, Dose 2/16 hr): −51.6 ± 5.4%
% Change in IOP ([2]; Study 1, 30 μg topical ocular, Dose 2/40 hr): −35.5 ± 6.3%
% Change in IOP ([2]; Study 1, 30 μg topical ocular, Dose 2/132 hr): −3.5 ± 3.7%
% Change in IOP ([2]; Study 2, 3 μg topical ocular, Dose 1/24 hr): −25.9 ± 0.6%
% Change in IOP ([2]; Study 2, 3 μg topical ocular, Dose 1/48 hr): −19.7 ± 1.9%
% Change in IOP ([2]; Study 2, 3 μg topical ocular, Dose 1/120 hr): −7.7 ± 0.8%
% Change in IOP ([2]; Study 3, 10 μg topical ocular, Dose 1/24 hr): −27.2 ± 0.1%
% Change in IOP ([2]; Study 3, 10 μg topical ocular, Dose 1/48 hr): −32.5 ± 2.4%
% Change in IOP ([2]; Study 3, 10 μg topical ocular, Dose 1/120 hr): −9.7 ± 0.6%
% Change in IOP ([2]; Table 8 Study 1, 300 μg topical ocular, Dose 1/1 hr): 2.0 ± 0.6%
% Change in IOP ([2]; Table 8 Study 1, 300 μg topical ocular, Dose 1/3 hr): −6.9 ± 2.9%
% Change in IOP ([2]; Table 8 Study 1, 300 μg topical ocular, Dose 1/6 hr): −24.8 ± 10.3%
% Change in IOP ([2]; Table 8 Study 2, 300 μg topical ocular, Dose 1/1 hr): 6.7 ± 2.1%
% Change in IOP ([2]; Table 8 Study 2, 300 μg topical ocular, Dose 1/3 hr): −7.5 ± 3.1%
% Change in IOP ([2]; Table 8 Study 2, 300 μg topical ocular, Dose 1/6 hr): −15.4 ± 5.7%
% Change in IOP ([2]; Table 8 Study 3, 600 μg topical ocular, Dose 1/1 hr): −0.4 ± 0.2%
% Change in IOP ([2]; Table 8 Study 3, 600 μg topical ocular, Dose 1/3 hr): −10.6 ± 4.4%
% Change in IOP ([2]; Table 8 Study 3, 600 μg topical ocular, Dose 1/6 hr): −27.7 ± 11.3%
% Change in IOP ([2]; Table 8 Study 4, 600 μg topical ocular, Dose 1/1 hr): 4.9 ± 1.6%
% Change in IOP ([2]; Table 8 Study 4, 600 μg topical ocular, Dose 1/3 hr): −4.6 ± 2.0%
% Change in IOP ([2]; Table 8 Study 4, 600 μg topical ocular, Dose 1/6 hr): −18.4 ± 6.9%
% Change in IOP ([2]; Table 8 Study 4, 600 μg topical ocular, Dose 2/16 hr): −37.9 ± 14.1%
% Change in IOP ([2]; Table 8 Study 4, 600 μg topical ocular, Dose 2/40 hr): −31.2 ± 11.7%
% Change in IOP ([2]; Table 8 Study 4, 600 μg topical ocular, Dose 2/64 hr): −16.1 ± 6.1%
lowering of IOP ([2]; topical ocular, 0.03-600 μg/eye): significant dose-dependent lowering of IOP
effect on IOP compared with vehicle [3]: lowered IOP compared with vehicle
